Measured values reported in patent US9228175B2, “Genes encoding a novel type of lysophophatidylcholine acyltransferases and their use to increase triacylglycerol production and/or modify fatty acid composition” (National Research Counsel of Canada, priority 2006, dated 2016).

Legend:
[1] = test system: lca1Δ yeast mutant (Y02431); assay type: cell-based, Saccharomyces cerevisiae
Protocol: (§1) Cells were frown first in SC-URA+2% glucose media overnight then in protein expression induction media for six hours. Cultures were diluted to OD600 value of OD600 0.5, 1, 2, 3, respectively, from which 5 μl were inoculated (from left to right) onto YPD plate containing lyso-PAF or lyso-PC. The plates were incubated at 28° C. for 36 hours.
(§2) Lyso-PAF sensitivity: Yeast strains Y02431 over-expressing LCA1 or harboring empty vector were first grown in 15 ml of SC-ura medium containing 2% glucose then transferred to SC-ura+2% galactose and 1% raffinose. After 12 hours LCA1 expression induction, the culture was diluted to correspond to OD600 value of 0.5, 1, 2, 3, 4. Five μl of each dilution was spotted to a YPD plate supplemented with varying concentrations of Lyso-PAF. The plates were incubated at 28° C. for two days.
Lyso-PAF sensitivity: Yeast strains BY02431 carrying pYES 2.1-AtLPCATs or the empty vector were first grown in 15 ml of SC-Leu-His-ura medium containing 2% glucose. Yeast transformant strains of AtLPCATs were first grown in YPD overnight. Protein expression induction were carried out by protocol described in Invitrogen manufacturer manual for yeast expression vector pYES2.1. After 12 hours induction, 5 μl cultures were inoculated onto YPD plate with 10 μg/ml lysoPAF. The plates were incubated at 28° C. for two days. The final lysoPAF is 10/ml.

[2] = target: T1, LCA1 (YOR175c) (Saccharomyces cerevisiae, UniProt Q08548); assay: In vitro assay of LPCAT activity: substrate specificity and kinetics of LCA1 (YOR175c); assay type: biochemical; conditions: for Rate of acylation as % of the activity registered for LPC: [^14C] palmitoyl-CoA as acyl donor, 50 μM lysophospholipid, microsomes of lca1Δ expressing YOR175c
T1 construct: Saccharomyces cerevisiae YOR175c ORF was PCR-amplified; made in house; host or cells: S. cerevisiae YOR175c deletion strain Y02431 (lca1Δ), pYES2.1, galactose induction; microsomal fraction
T1 sequence (Q08548 1-619): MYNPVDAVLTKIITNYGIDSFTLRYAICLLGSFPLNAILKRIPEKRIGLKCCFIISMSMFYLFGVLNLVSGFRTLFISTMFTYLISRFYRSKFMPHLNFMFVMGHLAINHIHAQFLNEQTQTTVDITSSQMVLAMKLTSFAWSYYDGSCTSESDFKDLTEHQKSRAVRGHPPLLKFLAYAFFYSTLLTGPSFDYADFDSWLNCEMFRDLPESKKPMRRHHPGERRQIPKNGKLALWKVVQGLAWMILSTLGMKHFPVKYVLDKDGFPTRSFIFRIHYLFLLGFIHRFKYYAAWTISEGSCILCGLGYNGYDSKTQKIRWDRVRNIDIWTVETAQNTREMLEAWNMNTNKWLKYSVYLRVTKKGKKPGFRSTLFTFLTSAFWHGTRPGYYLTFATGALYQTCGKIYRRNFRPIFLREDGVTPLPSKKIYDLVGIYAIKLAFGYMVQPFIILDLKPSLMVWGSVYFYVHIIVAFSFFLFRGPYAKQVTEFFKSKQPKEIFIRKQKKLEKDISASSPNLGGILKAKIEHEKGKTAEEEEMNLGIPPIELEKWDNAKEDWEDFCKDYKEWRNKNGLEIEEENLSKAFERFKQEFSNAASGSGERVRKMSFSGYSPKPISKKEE
Protocol: FIG. 11 is a graph showing the substrate specificity of LCA1. The assays were performed with 3 μg microsomal protein from lca1Δ harboring an empty vector (V0) and lca1Δ expressing LCA1. The reaction contained 112.5 μm [^14C] palmitoyl-CoA (5.5 nCi/nmol) and 50 μM lysophospholipid substrate (LPA, LPC, LPE, LPG, LPI, and LPS). Reaction was allowed for two minutes with 100 rpm shaking. The results are presented as a mean of three assays.
(§3) Microsomal preparation: Yeast strains were first grown in 15 ml of SC-Leu-His-Ura medium containing 2% glucose. Protein expression induction was carried out as described in Invitrogen manufacturer manual for yeast expression vector pYES2.1. After 24 hours of growth in SC+2% galactose+1% raffinose induction conditions, the cells were washed, first with distilled water and then with wall-breaking buffer (50 mM Tris-HCl, 1 mM EDTA, 0.6 M sorbitol, pH 7.4, 1 mM DTT). After centrifugation at 4,000 rpm (Eppendorf Centrifuge 5145C), the cells were resuspended in 1 ml wall-breaking buffer with 10 μl yeast protease cocktail (Sigma), and shaken vigorously in the presence of acid-washed glass beads (diameter 0.5 mm). The resultant homogenate was centrifuged at 12,000 rpm for ten minutes at 4° C. The decanted supernatant was further centrifuged at 100,000×g for 90-120 minutes at 4° C. The supernatant was discarded, and the pellet was suspended in homogenization buffer containing 20% glycerol and frozen at −80° C. until use. Protein concentration was measured using Bio-Rad Protein Assay Kit for final enzyme activity calculation.
(§4) In Vitro Assay of LPCAT activity: LPCAT substrate specificity was determined by measuring incorporation of [^14C] lysophosphatidylcholine or [^14C] palmitoyl-CoA into phosphatidylcholine. All assays were performed at least twice. For lysophospholipid substrate specificity assessment, 400 μl HEPES buffer contained 3 μg microsomal protein, 50 μM of lysophospholipid substrates and 112.5 μM [^14C] palmitoyl-CoA (5.5 nCi/nmol). For acyl-CoA substrate selectivity analysis, 400 μl HEPES reaction buffer (pH7.4, 0.1 M) contained 3 μg microsomal protein, 50 μM acyl-CoA and 112.5 μM [^14C] […] (1.35 nCi/nmol). Reaction was allowed for 2 minutes at 30° C. with 100 rpm shaking. The reaction products were extracted with chloroform/methanol (2/1, v/v) and separated with Merck silica G60 TLC plates. Spots corresponding to different phospholipid species products were scraped off and ^14C incorporation were scintillation counted. Different concentrations of ZnCl2 were added in to reactions for Zn^2+ inhibitory effect assay.

[3] = target: T2, LCA1 (Saccharomyces cerevisiae, UniProt Q08548); assay: Zn^2+ / Mg^2+ effect on LPCAT activity of LCA1 (in vitro assay, microsomes of lca1Δ over-expressing LCA1); assay type: biochemical; conditions: concentration ranging from 5 to 40 μM (data not shown)
T2 construct: Saccharomyces cerevisiae YOR175c ORF was PCR-amplified; made in house; host or cells: S. cerevisiae YOR175c deletion strain Y02431 (lca1Δ), pYES2.1, galactose induction; microsomal fraction
T2 sequence (Q08548 1-619): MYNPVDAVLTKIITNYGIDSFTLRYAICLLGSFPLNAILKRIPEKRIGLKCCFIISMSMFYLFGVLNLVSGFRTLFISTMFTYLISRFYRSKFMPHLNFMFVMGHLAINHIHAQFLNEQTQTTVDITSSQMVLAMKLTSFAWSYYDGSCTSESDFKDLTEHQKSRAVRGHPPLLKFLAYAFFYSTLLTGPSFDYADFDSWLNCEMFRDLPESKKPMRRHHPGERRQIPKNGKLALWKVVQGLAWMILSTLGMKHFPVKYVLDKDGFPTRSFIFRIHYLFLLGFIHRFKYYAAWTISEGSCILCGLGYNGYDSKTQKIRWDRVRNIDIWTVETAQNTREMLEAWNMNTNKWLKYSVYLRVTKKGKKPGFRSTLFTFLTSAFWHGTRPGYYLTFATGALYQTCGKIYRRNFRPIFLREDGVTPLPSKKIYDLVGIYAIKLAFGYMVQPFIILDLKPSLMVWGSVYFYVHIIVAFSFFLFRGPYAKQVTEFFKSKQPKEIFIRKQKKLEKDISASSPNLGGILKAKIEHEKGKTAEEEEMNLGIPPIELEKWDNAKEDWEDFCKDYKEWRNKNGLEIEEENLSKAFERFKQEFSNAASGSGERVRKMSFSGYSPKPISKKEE
Protocol: as §3, §4
Results are expressed as means±S.D. The lca1Δ over-expressing LCA1 was used to assess Zn^2+ effect. The reactions contained 5.6 μM palmitoyl-LPC (1.35 nCi/nmol), 1.5 μg microsomal proteins, 0.1 M HEPES (pH 7.4), 11.25 μM stearyl-CoA and indicated concentration of ZnCl2. The reaction was stopped after two minutes by adding 2 ml of chloroform/methanol solution (2:1).

[4] = test system: parental (WT) yeast strain; assay: Lyso-PAF and lyso-PC sensitivity plate test, parental strain; assay type: cell-based, Saccharomyces cerevisiae; conditions: plate assay
Protocol: as §1, §2

## 1-O-alkyl-sn-glycero-3-phosphocholine [lyso-PAF]
[1]; 10 ug/ml on YPD plate
  Growth of lpcat yeast mutant: incapable of growth
[1]; lca1Δ mutant, plate assay
  Concentration above which hypersensitivity is displayed: above 5 μg/ml

## CCCCCCCCCCCCCCCC(=O)OC[C@@H](O)COP(=O)([O-])OCC[N+](C)(C)C [LPC (16:0), palmitic (16:0)-LPC]
[2]; data not shown
  Concentration above which inhibitory effects on LPCAT activity are exerted: above 75 μM

## [Mg+2] [Mg^2+]
[3]
  Effect on LPCAT activity of LCA1: did not detect significant effect

## lysophosphatidylcholine [LPC]
[2]; [^14C] palmitoyl-CoA, LPA, LPC, LPE, LPG, LPI, LPS compared
  Acyltransferase activity among lysophospholipid substrates: highest activity
[1]; lca1Δ, plate assay
  Level tolerated: up to 20 μg/ml
[4]
  Level tolerated: up to 20 μg/ml

## lysophosphatidylethanolamine [LPE]
[2]
  Rate of acylation as % of the activity registered for LPC: ~20%

## lysophosphatidylglycerol [LPG]
[2]
  Rate of acylation as % of the activity registered for LPC: approximately 60%

B1: LCA1: yeast (S. cerevisiae) LPC acyltransferase encoded by YOR175c, SEQ ID NO:2 (protein, listed as Saccharomyces cerevisiae)
chain: MYNPVDAVLTKIITNYGIDSFTLRYAICLLGSFPLNAILKRIPEKRIGLKCCFIISMSMFYLFGVLNLVSGFRTLFISTMFTYLISRFYRSKFMPHLNFMFVMGHLAINHIHAQFLNEQTQTTVDITSSQMVLAMKLTSFAWSYYDGSCTSESDFKDLTEHQKSRAVRGHPPLLKFLAYAFFYSTLLTGPSFDYADFDSWLNCEMFRDLPESKKPMRRHHPGERRQIPKNGKLALWKVVQGLAWMILSTLGMKHFPVKYVLDKDGFPTRSFIFRIHYLFLLGFIHRFKYYAAWTISEGSCILCGLGYNGYDSKTQKIRWDRVRNIDIWTVETAQNTREMLEAWNMNTNKWLKYSVYLRVTKKGKKPGFRSTLFTFLTSAFWHGTRPGYYLTFATGALYQTCGKIYRRNFRPIFLREDGVTPLPSKKIYDLVGIYAIKLAFGYMVQPFIILDLKPSLMVWGSVYFYVHIIVAFSFFLFRGPYAKQVTEFFKSKQPKEIFIRKQKKLEKDISASSPNLGGILKAKIEHEKGKTAEEEEMNLGIPPIELEKWDNAKEDWEDFCKDYKEWRNKNGLEIEEENLSKAFERFKQEFSNAASGSGERVRKMSFSGYSPKPISKKEE
[2]; Lineweaver-Burk double-reciprocal plot
  Vmax: 524 pmol/min/μg protein
[2]; Lineweaver-Burk double-reciprocal plot, read-out: apparent Km for acyl-CoA
  Km: 0.89 ± 0.25 µM
[2]; lyso-PAF as acyl acceptor
  Increase in lyso-PAF acyltransferase activity on over-expression: 86.3 fold
